This note sets out measurements from ChEMBL document CHEMBL1141678 (Eur J Med Chem, 2008).

One may read the IC50 as the midpoint of a concentration-inhibition curve. By inhibition is commonly meant the relative decrease from the control value, in per cent.

Molecules are shown by their SMILES.

Series [1] addresses T1, Cytochrome P450 2B6 (Homo sapiens, UniProt P20813).
T1 sequence (P20813 whole entry): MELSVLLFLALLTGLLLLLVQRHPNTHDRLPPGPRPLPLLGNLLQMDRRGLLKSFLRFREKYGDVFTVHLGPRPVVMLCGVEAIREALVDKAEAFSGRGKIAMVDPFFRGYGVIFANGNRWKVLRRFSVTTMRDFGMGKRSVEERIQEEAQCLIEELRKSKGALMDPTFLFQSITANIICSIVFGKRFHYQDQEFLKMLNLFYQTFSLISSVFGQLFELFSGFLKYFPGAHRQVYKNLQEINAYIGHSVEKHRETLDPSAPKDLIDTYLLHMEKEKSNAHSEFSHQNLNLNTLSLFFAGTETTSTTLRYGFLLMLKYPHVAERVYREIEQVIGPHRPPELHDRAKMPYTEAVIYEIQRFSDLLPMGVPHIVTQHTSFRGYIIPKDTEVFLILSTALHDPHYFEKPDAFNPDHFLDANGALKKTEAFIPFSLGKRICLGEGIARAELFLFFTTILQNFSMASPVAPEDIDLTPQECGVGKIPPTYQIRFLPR
The experiment in a line: Inhibition of human recombinant CYP2B6. It is filed as ADME.

Series [2] concerns the target T1, Cytochrome P450 2B6. The series is described as follows: Inhibition of human recombinant CYP2B6 in presence of reduced glutathione. It is filed as ADME. To be noted: recombinant enzyme.
Series [3] has as its target T2, Cytochrome P450 2C9 (Homo sapiens, UniProt P11712). The experiment in a line: Inhibition of human recombinant CYP2C9 in presence of reduced glutathione. The class given is ADME. As to conditions: recombinant enzyme; call rule not given here.
Series [4] addresses T3, Cytochrome P450 2D6 (Homo sapiens, UniProt P10635). The experiment in a line: Inhibition of human recombinant CYP2D6 in presence of reduced glutathione. As to conditions: recombinant enzyme. The class given is ADME.
The target of series [5] is T4, Cytochrome P450 3A4 (Homo sapiens, UniProt P08684). The series is described as follows: Inhibition of human recombinant CYP3A4 in presence of reduced glutathione. The class given is ADME. As to conditions: recombinant enzyme.
Series [6] deals with T3, Cytochrome P450 2D6. The series is described as follows: Inhibition of human recombinant CYP2D6. It is filed as ADME.
The next series addresses T5, CYP2B6 (Homo sapiens, UniProt P20813).
T5 sequence (P20813 whole entry): T1 sequence (P20813 whole entry)
The series is described as follows: Inhibition of human recombinant CYP2B6 at 100 uM. It is filed as ADME.

The next series concerns the target T6, Cytochrome P450 1A2 (Homo sapiens, UniProt P05177).
T6 sequence (P05177 whole entry): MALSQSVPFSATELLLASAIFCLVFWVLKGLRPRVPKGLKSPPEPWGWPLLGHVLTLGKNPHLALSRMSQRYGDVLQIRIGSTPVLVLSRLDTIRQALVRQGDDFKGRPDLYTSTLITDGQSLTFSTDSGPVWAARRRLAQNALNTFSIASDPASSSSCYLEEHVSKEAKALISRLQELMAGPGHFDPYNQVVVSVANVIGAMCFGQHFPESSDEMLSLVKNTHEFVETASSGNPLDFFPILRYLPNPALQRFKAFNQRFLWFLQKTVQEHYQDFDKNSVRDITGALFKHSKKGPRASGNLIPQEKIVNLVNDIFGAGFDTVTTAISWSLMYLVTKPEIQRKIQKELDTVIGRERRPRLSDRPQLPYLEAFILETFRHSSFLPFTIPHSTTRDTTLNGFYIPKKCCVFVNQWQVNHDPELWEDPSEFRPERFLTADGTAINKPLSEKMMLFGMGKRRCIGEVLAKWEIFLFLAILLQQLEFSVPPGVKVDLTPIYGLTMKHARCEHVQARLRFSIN
The series is described as follows: Inhibition of human recombinant CYP1A2. To be noted: for log(1/IC50): human.

Series [7] addresses T4, Cytochrome P450 3A4. The experiment in a line: Inhibition of human recombinant CYP3A4. The class given is ADME.
Series [8] has as its target T2, Cytochrome P450 2C9. The series is described as follows: Inhibition of human recombinant CYP2C9. It is filed as ADME.

T2 sequence (P11712 whole entry): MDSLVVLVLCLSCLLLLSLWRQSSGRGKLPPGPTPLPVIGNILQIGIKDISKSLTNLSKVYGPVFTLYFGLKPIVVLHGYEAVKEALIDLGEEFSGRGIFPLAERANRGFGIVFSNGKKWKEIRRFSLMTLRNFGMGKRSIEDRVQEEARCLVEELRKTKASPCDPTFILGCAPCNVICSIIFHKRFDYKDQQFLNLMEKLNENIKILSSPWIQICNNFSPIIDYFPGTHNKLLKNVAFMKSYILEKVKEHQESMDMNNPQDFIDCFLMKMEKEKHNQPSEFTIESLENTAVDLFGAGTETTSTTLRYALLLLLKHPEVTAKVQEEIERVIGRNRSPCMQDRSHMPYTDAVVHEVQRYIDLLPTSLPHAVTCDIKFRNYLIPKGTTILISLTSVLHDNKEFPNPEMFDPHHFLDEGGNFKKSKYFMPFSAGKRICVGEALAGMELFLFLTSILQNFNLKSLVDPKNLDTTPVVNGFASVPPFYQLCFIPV
T4 sequence (P08684 whole entry): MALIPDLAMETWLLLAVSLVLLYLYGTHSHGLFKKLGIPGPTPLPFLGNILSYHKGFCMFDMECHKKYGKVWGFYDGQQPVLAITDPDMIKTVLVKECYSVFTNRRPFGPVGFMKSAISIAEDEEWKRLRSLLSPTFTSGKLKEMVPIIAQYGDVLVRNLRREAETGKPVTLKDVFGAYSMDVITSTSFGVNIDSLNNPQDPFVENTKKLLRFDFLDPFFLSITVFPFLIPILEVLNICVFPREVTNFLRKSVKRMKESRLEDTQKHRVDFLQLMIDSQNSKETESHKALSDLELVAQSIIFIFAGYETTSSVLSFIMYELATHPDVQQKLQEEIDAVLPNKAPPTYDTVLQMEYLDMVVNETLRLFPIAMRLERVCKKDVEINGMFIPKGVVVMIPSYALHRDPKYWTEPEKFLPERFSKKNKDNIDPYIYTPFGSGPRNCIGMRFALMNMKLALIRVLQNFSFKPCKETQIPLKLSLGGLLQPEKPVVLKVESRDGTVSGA
T3 sequence (P10635 whole entry): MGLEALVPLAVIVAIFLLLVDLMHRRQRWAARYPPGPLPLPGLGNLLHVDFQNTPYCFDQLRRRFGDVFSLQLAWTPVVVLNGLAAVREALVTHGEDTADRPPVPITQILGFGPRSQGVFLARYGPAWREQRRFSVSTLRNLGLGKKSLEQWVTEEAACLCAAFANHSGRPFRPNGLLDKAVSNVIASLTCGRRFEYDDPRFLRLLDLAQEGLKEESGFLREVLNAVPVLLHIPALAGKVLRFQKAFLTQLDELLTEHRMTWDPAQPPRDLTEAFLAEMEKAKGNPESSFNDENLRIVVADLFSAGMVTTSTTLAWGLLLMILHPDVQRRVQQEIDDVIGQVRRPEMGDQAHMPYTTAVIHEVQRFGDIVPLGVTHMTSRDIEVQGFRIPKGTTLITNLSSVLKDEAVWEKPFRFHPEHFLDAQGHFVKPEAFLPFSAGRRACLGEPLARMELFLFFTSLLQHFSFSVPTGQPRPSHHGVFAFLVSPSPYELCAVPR

For the compound `Cc1cc(/C=C/C(=O)/C=C/c2cc(C)c(O)c(C)c2)cc(C)c1O`, the 50% inhibitory concentration (IC50) at Cytochrome P450 2B6 [1] is 44.8 µM; on Cytochrome P450 2D6 [6] it was 13.2 µM; on Cytochrome P450 1A2, 30.4 µM; on Cytochrome P450 3A4 [7], 40.3 µM; on Cytochrome P450 2C9 [8], 62.8 µM. Besides, the Activity result at Cytochrome P450 2B6 [2], at Cytochrome P450 2C9 [3], at Cytochrome P450 2D6 [4] and on Cytochrome P450 3A4 [5] was “Not Active” each time. Besides, the inhibition at 100 µM at CYP2B6 was greater than 20%. Besides, the “log(1/IC50)” value on Cytochrome P450 1A2 (recombinant CYP1A2) is given as 1.517.
Take `COc1cc(/C=C/C(=O)/C=C/c2cc(OC)c(O)c(OC)c2)cc(OC)c1O`: the half-maximal inhibitory concentration (IC50) is 24.8 µM on Cytochrome P450 2B6 [1]; 82.7 µM at Cytochrome P450 2D6 [6]; 75.2 µM at Cytochrome P450 1A2; 13.2 µM at Cytochrome P450 3A4 [7]; 59 µM on Cytochrome P450 2C9 [8]. Also, the Activity result on Cytochrome P450 2B6 [2], at Cytochrome P450 2C9 [3], at Cytochrome P450 2D6 [4] and on Cytochrome P450 3A4 [5] was “Not Active” throughout. Besides, on CYP2B6, the inhibition at 100 µM was greater than 20%. Further, the “log(1/IC50)” value on Cytochrome P450 1A2 (recombinant enzyme) is 1.124 mM.
